The target in one assay is T1, human CYP2J2 (Homo sapiens, UniProt P51589).
T1 sequence (P51589 1-502): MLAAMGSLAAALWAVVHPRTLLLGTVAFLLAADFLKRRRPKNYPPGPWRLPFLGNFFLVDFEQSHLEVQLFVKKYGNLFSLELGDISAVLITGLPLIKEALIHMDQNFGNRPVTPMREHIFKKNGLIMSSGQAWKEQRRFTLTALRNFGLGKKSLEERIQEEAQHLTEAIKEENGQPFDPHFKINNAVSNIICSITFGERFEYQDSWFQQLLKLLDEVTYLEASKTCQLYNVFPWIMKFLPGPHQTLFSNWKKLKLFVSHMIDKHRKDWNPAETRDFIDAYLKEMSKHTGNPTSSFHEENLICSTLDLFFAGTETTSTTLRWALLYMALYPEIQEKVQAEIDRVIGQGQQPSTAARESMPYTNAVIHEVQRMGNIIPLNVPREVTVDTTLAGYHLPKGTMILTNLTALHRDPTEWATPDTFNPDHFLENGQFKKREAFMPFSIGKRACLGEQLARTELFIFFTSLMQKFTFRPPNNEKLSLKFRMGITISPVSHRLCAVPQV
Description: P450 spectral binding titration.

Assay [1] concerns the target T2, Fatty Acid Amide Hydrolase (FAAH) (Homo sapiens, UniProt O00519).
T2 sequence (O00519 1-579): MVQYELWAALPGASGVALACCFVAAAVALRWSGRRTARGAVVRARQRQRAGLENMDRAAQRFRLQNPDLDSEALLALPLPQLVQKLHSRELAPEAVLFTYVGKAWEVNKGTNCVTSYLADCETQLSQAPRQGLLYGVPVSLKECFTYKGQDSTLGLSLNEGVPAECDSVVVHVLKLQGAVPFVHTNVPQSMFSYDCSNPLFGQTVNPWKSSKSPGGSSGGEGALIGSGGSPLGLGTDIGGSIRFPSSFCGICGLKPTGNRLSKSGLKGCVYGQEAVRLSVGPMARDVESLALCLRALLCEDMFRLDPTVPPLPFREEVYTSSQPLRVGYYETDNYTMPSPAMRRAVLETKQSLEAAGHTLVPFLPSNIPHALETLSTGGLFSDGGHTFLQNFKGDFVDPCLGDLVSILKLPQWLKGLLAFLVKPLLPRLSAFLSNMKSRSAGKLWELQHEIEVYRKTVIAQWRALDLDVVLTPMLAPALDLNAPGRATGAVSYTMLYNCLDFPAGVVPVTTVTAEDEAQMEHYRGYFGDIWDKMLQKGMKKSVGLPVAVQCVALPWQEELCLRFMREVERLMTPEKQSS
Description: fluorescence assay of AMC release from anandamide-AMC, 4-parameter logistic fit. The class given is biochemical.

In the next assay the target is CYP3A4 (Homo sapiens, UniProt P08684). The experiment in a line: P450 spectral binding titration.

What is called Kd is the free concentration of one partner at which half of the binding sites on the other are occupied at equilibrium, for simple one-to-one binding. Read a high Kd as lower affinity. As a reminder, the IC50 is the concentration that gives 50% inhibition.

Chain of CYP3A4 (P08684 2-503): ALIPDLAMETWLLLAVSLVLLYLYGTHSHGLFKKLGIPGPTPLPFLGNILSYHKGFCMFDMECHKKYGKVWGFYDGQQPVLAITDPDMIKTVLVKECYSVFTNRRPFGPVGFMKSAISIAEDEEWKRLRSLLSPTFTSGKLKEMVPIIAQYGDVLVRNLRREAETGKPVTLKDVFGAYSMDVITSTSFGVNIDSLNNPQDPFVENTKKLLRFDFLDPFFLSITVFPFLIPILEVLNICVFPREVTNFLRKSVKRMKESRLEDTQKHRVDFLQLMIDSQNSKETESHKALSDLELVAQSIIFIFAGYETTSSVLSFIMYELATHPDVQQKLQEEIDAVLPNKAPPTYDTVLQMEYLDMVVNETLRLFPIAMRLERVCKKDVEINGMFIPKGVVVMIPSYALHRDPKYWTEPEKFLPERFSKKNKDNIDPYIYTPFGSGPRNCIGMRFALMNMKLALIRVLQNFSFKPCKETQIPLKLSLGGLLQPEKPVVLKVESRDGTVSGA

As for `CCCCC/C=C\C/C=C\C/C=C\C/C=C\CCCC(=O)NCC(=O)O` [NA-Gly], the equilibrium dissociation constant (Kd) at human CYP2J2 is 3.3 ± 0.31 µM. Also, in assay [1], the IC50 was determined as 14.2 ± 1.07 µM.
`CC/C=C\C/C=C\C/C=C\C/C=C\C/C=C\C/C=C\CCC(=O)NCC(=O)O` [DHA-Gly]: the Kd was 2.47 ± 0.26 µM at human CYP2J2 and 20.3 ± 6.13 µM at CYP3A4. For the same molecule, the IC50 in assay [1] was determined as 35.3 ± 1.82 µM.

For the origin of these results see paper doi:10.1101/2025.10.17.681057v1 (biorxiv, 2025).
